Series [1] has as its system L02. As to the kind of experiment: Cytotoxicity against human LO2 cells assessed as reduction in cell viability by MTT assay. The class given is ADME, cell-based. For orientation: Tetrazolium dyes change colour on reduction, which living cells bring about.
Series [2] relates to SMMC-7721. As to the kind of experiment: Cytotoxicity against human SMMC7721 cells assessed as reduction in cell viability by MTT assay. The class given is functional, cell-based.
Series [3] relates to HepG2. As to the kind of experiment: Cytotoxicity against human HepG2 cells assessed as reduction in cell viability by MTT assay. It is filed as functional, cell-based.
For series [4], the system named is PLC-PRF-5. The series can be described thus: Cytotoxicity against human PLC/PRF/5 cells assessed as reduction in cell viability by MTT assay. It is filed as functional, cell-based.
Series [5] deals with SMMC-7721. As to the kind of experiment: Induction of apoptosis in human SMMC7721 cells assessed as formation of apoptotic bodies at 0.5 to 8 uM measured after 24 hrs by DAPI staining based fluorescence microscopic analysis. The class given is functional, cell-based.
The test system of series [6] is SMMC-7721. As to the kind of experiment: Induction of apoptosis in human SMMC7721 cells assessed as chromatin […] at 0.5 to 8 uM measured after 24 hrs by DAPI staining based fluorescence microscopic analysis. The class given is functional, cell-based.
Series [7] has as its target T1, Hexokinase-2 (Homo sapiens, UniProt P52789).
T1 sequence (P52789 whole entry): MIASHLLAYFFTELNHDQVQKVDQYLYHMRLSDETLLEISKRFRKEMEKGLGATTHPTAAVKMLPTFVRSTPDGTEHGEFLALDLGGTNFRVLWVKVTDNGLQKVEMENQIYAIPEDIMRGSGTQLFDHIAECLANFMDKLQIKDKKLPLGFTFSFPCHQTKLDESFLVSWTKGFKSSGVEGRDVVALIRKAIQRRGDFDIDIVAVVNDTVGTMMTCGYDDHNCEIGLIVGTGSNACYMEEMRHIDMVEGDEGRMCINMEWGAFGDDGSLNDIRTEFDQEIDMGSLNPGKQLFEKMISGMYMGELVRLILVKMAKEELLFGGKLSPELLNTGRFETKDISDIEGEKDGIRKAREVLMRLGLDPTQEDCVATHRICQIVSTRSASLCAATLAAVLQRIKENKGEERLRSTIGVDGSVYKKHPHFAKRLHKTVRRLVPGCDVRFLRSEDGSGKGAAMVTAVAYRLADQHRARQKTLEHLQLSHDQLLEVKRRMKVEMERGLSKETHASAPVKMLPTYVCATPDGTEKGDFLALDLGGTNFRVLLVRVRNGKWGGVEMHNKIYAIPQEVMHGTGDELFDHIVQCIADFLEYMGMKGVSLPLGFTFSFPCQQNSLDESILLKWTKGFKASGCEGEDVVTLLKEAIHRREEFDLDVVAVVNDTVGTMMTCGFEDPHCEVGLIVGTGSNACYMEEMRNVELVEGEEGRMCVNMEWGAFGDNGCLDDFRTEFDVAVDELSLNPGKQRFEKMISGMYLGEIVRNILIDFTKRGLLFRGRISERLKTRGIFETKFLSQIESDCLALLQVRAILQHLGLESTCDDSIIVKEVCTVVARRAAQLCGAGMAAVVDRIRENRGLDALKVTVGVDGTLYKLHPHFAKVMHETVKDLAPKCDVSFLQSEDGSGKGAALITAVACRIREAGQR
As to the kind of experiment: Inhibition of HK2 (unknown origin) using glucose-6-phosphate dehydrogenase as substrate preincubated for 10 mins followed by substrate addition.

Compound in series [8]: COC1=C(c2ccccc2)C(=O)[C@@](O)(CC(C)=O)C(c2ccccc2)=C1
The series can be described thus: (§1) Competitive-inhibition of HK2 (unknown origin) assessed as Km at 10 uM using varying levels of glucose-6-phosphate dehydrogenase as substrate by Lineweaver-burk plot analysis. The note with it: Homo sapiens.

Compound in series [9]: CC1(C)N=C2C(c3ccccc3)=CC(=O)C(c3ccccc3)=C2O1
The series is described as §1. The note with it: Homo sapiens.

Compound in series [10]: COc1cc(-c2ccccc2)c(=O)c(C(C)=O)c(O)c1-c1ccccc1
The description is as §1. As to conditions: Homo sapiens.

Where a name gives a salt, the structure may show the parent alone. Active and inactive are the calls of the source. No cut-off for these calls is given here.

One may read the IC50 as the concentration needed to halve the response being measured. In general, Km refers to the concentration of substrate that gives half-maximal velocity.

For `COc1cccc2c1C(=O)c1c(O)c3c(c(O)c1C2=O)C[C@@](O)(C(=O)CO)C[C@@H]3O[C@H]1C[C@H](N)[C@H](O)[C@H](C)O1` [DOXORUBICIN HYDROCHLORIDE], the IC50 in series [1] came to 13.5 µM; in [2], 1100 nM; in [3] it was 2.6 µM; in [4], 1900 nM.
Take `O=c1[nH]cc(F)c(=O)[nH]1` [FLUOROURACIL]: the IC50 in series [1] came to 10.6 µM; in series [2], 2500 nM; in series [3], 3.6 µM; in series [4], 2800 nM.
On to `COC1=C(c2ccccc2)C(=O)[C@@](O)(CC(C)=O)C(c2ccccc2)=C1`, for which the outcome in series [5] and in [6] was Active. Besides, the IC50 was determined as 11.2 µM in series [1]; 2900 nM in series [2]; 9.8 µM in [7]; 2.3 µM in [3]; 1900 nM in series [4].
With `CC1(C)N=C2C(c3ccccc3)=CC(=O)C(c3ccccc3)=C2O1`, the IC50 in [1] turned out to be 17.6 µM; in series [2] it was 4900 nM; in [7] it was 34.6 µM; in [3], 12.3 µM; in series [4] it was 11600 nM.
For `COc1cc(-c2ccccc2)c(=O)c(C(C)=O)c(O)c1-c1ccccc1` the same measures were 17.8 µM, 10300 nM, 31.2 µM, 9.5 µM and 7100 nM.

B1: Hexokinase-2 (Homo sapiens), P52789 (protein)
chain: MIASHLLAYFFTELNHDQVQKVDQYLYHMRLSDETLLEISKRFRKEMEKGLGATTHPTAAVKMLPTFVRSTPDGTEHGEFLALDLGGTNFRVLWVKVTDNGLQKVEMENQIYAIPEDIMRGSGTQLFDHIAECLANFMDKLQIKDKKLPLGFTFSFPCHQTKLDESFLVSWTKGFKSSGVEGRDVVALIRKAIQRRGDFDIDIVAVVNDTVGTMMTCGYDDHNCEIGLIVGTGSNACYMEEMRHIDMVEGDEGRMCINMEWGAFGDDGSLNDIRTEFDQEIDMGSLNPGKQLFEKMISGMYMGELVRLILVKMAKEELLFGGKLSPELLNTGRFETKDISDIEGEKDGIRKAREVLMRLGLDPTQEDCVATHRICQIVSTRSASLCAATLAAVLQRIKENKGEERLRSTIGVDGSVYKKHPHFAKRLHKTVRRLVPGCDVRFLRSEDGSGKGAAMVTAVAYRLADQHRARQKTLEHLQLSHDQLLEVKRRMKVEMERGLSKETHASAPVKMLPTYVCATPDGTEKGDFLALDLGGTNFRVLLVRVRNGKWGGVEMHNKIYAIPQEVMHGTGDELFDHIVQCIADFLEYMGMKGVSLPLGFTFSFPCQQNSLDESILLKWTKGFKASGCEGEDVVTLLKEAIHRREEFDLDVVAVVNDTVGTMMTCGFEDPHCEVGLIVGTGSNACYMEEMRNVELVEGEEGRMCVNMEWGAFGDNGCLDDFRTEFDVAVDELSLNPGKQRFEKMISGMYLGEIVRNILIDFTKRGLLFRGRISERLKTRGIFETKFLSQIESDCLALLQVRAILQHLGLESTCDDSIIVKEVCTVVARRAAQLCGAGMAAVVDRIRENRGLDALKVTVGVDGTLYKLHPHFAKVMHETVKDLAPKCDVSFLQSEDGSGKGAALITAVACRIREAGQR
Take B1: the values for the Km in [8], in [9] and in series [10] were 430 µM, 290 µM and 310 µM, respectively.

For the origin of these results see ChEMBL document CHEMBL4316646, “Strepantibins A-C: Hexokinase II Inhibitors from a Mud Dauber Wasp Associated Streptomyces sp” (J Nat Prod, 2019).
